Assay results published in ChEMBL document CHEMBL1124522, “Synthesis and antitumor activity of 5-deaza-5,6,7,8-tetrahydrofolic acid and its N10-substituted analogues” (J Med Chem, 1989).
“And” between values parts separate entries of the source, which are not always exact repeats. Identical values can stand only once.

Tests used:
[1] = In vivo antitumor activity (toxic/total) at dose 50 mg/kg in C3H mice with transplantable murine solid tumor C3H mammary adenocarcinoma, doses administered intraperitoneally on days 1,3,5,7 and 9;Compound was tested on 10 mice.; assay type: functional, Mus musculus; details: route intraperitoneal
6C3HED [2] = assay: Percent inhibition against 6C3HED lymphosarcoma at dose 6 mg/kg in C3H mice; assay type: functional; details: Mus musculus
[3] = In vivo antitumor activity (toxic/total) at dose 25 mg/kg in C3H mice with transplantable murine solid tumor C3H mammary adenocarcinoma; Compound was tested on 10 mice.; assay type: functional, Mus musculus
[4] = In vivo antitumor avctivity (Toxic/total) at dose 25 mg/kg in C3H mice with transplantable murine solid tumor 6C3HED lymphosarcoma; Compound was tested on 10 mice.; assay type: functional, Mus musculus
[5] = In vivo anti tumor activity (toxic/total) at dose 25 mg/kg in C3H mice with transplantable murine solid tumor 6C3HED lymphosarcoma, doses administered intraperitoneally on days 1,3,5,7 and 9;Compound was tested on 10 mice.; assay type: functional, Mus musculus; details: route intraperitoneal
[6] = In vivo anti tumor activity (toxic/total) at dose 50 mg/kg in C3H mice with transplantable murine solid tumor 6C3HED lymphosarcoma, doses administered intraperitoneally on days 1,3,5,7 and 9;Compound was tested on 10 mice.; assay type: functional, Mus musculus; details: route intraperitoneal
[7] = Percent inhibition against C3H mammary adenocarcinoma at dose 6.25 mg/kg in C3H mice; assay type: functional; details: Mus musculus
[8] = In vivo anti tumor activity (toxic/total) at dose 100 mg/kg in C3H mice with transplantable murine solid tumor 6C3HED lymphosarcoma, doses administered intraperitoneally on days 1,3,5,7 and 9;Compound was tested on 9 mice.; assay type: functional, Mus musculus; details: route intraperitoneal
CCRF-CEM = assay: Compound was tested for its antitumor activity against human lymphoblastic leukemic cells(CCRF-CEM) in vitro; assay type: functional, cell-based
[9] = Percent inhibition against C3H mammary adenocarcinoma at dose 100 mg/kg administered ip on days 1,3,5,7 and 9 in C3H mice; assay type: functional; details: Mus musculus, route intraperitoneal
[10] = In vivo antitumor avctivity (Toxic/total) at dose 12.5 mg/kg in C3H mice with transplantable murine solid tumor 6C3HED lymphosarcoma; Compound was tested on 10 mice.; assay type: functional, Mus musculus
6C3HED [11] = assay: Percent inhibition against 6C3HED lymphosarcoma at dose 200 mg/kg in C3H mice; assay type: functional; details: Mus musculus
[12] = In vivo anti tumor activity (toxic/total) at dose 12.5 mg/kg in C3H mice with transplantable murine solid tumor 6C3HED lymphosarcoma, doses administered intraperitoneally on days 1,3,5,7 and 9;Compound was tested on 10 mice.; assay type: functional, Mus musculus; details: route intraperitoneal
6C3HED [13] = assay: (§1) Percent inhibition against 6C3HED lymphosarcoma at dose 100 mg/kg in C3H mice; assay type: functional, Mus musculus
6C3HED [14] = assay: (§2) Percent inhibition against 6C3HED lymphosarcoma at dose 50 mg/kg in C3H mice; assay type: functional, Mus musculus
[15] = Percent inhibition against C3H mammary adenocarcinoma at dose 50 mg/kg in C3H mice;Compound was toxic.; assay type: ADME, organism-based; design: dose 50 mg/kg; details: mouse, in vivo
[16] = In vivo antitumor activity (toxic/total) at dose 12.5 mg/kg in C3H mice with transplantable murine solid tumor C3H mammary adenocarcinoma, doses administered intraperitoneally on days 1,3,5,7 and 9;Compound was tested on 10 mice.; assay type: functional, Mus musculus; details: route intraperitoneal
[17] = In vivo antitumor avctivity (Toxic/total) at dose 100 mg/kg in C3H mice with transplantable murine solid tumor 6C3HED lymphosarcoma; Compound was tested on 10 mice.; assay type: functional, Mus musculus
[18] = In vivo anti tumor activity (toxic/total) at dose 200 mg/kg in C3H mice with transplantable murine solid tumor 6C3HED lymphosarcoma, doses administered intraperitoneally on days 1,3,5,7 and 9;Compound was tested on 10 mice.; assay type: functional, Mus musculus; details: route intraperitoneal
[19] = In vivo antitumor activity (toxic/total) at dose 25 mg/kg in C3H mice with transplantable murine solid tumor C3H mammary adenocarcinoma, doses administered intraperitoneally on days 1,3,5,7 and 9;Compound was tested on 10 mice.; assay type: functional, Mus musculus; details: route intraperitoneal
6C3HED [20] = assay: (§3) Percent inhibition against 6C3HED lymphosarcoma at dose 12.5 mg/kg in C3H mice; assay type: functional, Mus musculus
[21] = In vivo antitumor activity (toxic/total) at dose 6.25 mg/kg in C3H mice with transplantable murine solid tumor C3H mammary adenocarcinoma, doses administered intraperitoneally on days 1,3,5,7 and 9;Compound was tested on 10 mice.; assay type: functional, Mus musculus; details: route intraperitoneal
[22] = In vivo antitumor activity (toxic/total) at dose 12.5 mg/kg in C3H mice with transplantable murine solid tumor C3H mammary adenocarcinoma; Compound was tested on 10 mice.; assay type: functional, Mus musculus
[23] = Percent inhibition against C3H mammary adenocarcinoma at dose 6.25 mg/kg administered ip on days 1,3,5,7 and 9 in C3H mice; assay type: functional; details: Mus musculus, route intraperitoneal
[24] = Percent inhibition against C3H mammary adenocarcinoma at dose 12.5 mg/kg administered ip on days 1,3,5,7 and 9 in C3H mice; assay type: functional; details: Mus musculus, route intraperitoneal
[25] = In vivo antitumor avctivity (Toxic/total) at dose 50 mg/kg in C3H mice with transplantable murine solid tumor 6C3HED lymphosarcoma; Compound was tested on 10 mice.; assay type: functional, Mus musculus
6C3HED [26] = assay: (§4) Percent inhibition against 6C3HED lymphosarcoma at dose 25 mg/kg in C3H mice; assay type: functional, Mus musculus
[27] = In vivo antitumor activity (toxic/total) at dose 100 mg/kg in C3H mice with transplantable murine solid tumor C3H mammary adenocarcinoma, doses administered intraperitoneally on days 1,3,5,7 and 9;Compound was tested on 10 mice.; assay type: functional, Mus musculus; details: route intraperitoneal
[28] = Percent inhibition against C3H mammary adenocarcinoma at dose 25 mg/kg administered ip on days 1,3,5,7 and 9 in C3H mice; assay type: functional; details: Mus musculus, route intraperitoneal
[29] = Percent inhibition against C3H mammary adenocarcinoma at dose 25 mg/kg in C3H mice;Compound was toxic.; assay type: ADME, organism-based; design: dose 25 mg/kg; details: mouse, in vivo
[30] = Percent inhibition against C3H mammary adenocarcinoma at dose 50 mg/kg administered ip on days 1,3,5,7 and 9 in C3H mice; assay type: functional; details: Mus musculus, route intraperitoneal
[31] = In vivo antitumor activity (toxic/total) at dose 6.25 mg/kg in C3H mice with transplantable murine solid tumor C3H mammary adenocarcinoma; Compound was tested on 10 mice.; assay type: functional, Mus musculus
[32] = In vivo antitumor activity (toxic/total) at dose 50 mg/kg in C3H mice with transplantable murine solid tumor C3H mammary adenocarcinoma; Compound was tested on 10 mice.; assay type: functional, Mus musculus
[33] = In vivo antitumor avctivity (Toxic/total) at dose 6 mg/kg in C3H mice with transplantable murine solid tumor 6C3HED lymphosarcoma; Compound was tested on 10 mice.; assay type: functional, Mus musculus
[34] = molecular target: T1, Folylpolyglutamate synthase, mitochondrial (Mus musculus) (UniProt P48760); assay: Apparent catalytic rate constants (Km) owas determined from mouse liver Folyl-polyglutamate synthase
T1 sequence (whole entry): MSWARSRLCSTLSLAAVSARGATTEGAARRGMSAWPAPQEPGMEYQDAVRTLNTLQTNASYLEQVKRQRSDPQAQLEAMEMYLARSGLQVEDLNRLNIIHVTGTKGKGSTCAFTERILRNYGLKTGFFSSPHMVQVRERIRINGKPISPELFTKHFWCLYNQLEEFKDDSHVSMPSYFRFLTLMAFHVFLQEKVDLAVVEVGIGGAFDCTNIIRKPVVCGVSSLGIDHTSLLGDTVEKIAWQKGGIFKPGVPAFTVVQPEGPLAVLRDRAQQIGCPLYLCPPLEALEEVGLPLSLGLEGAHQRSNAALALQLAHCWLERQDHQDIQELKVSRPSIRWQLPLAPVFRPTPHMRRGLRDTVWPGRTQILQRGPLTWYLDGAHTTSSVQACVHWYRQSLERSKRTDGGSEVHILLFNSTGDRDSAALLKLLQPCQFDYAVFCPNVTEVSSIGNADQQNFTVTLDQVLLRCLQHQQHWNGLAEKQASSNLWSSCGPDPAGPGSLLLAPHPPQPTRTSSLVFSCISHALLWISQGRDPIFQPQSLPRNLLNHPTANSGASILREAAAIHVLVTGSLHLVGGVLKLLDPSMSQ

[35] = molecular target: T1, Folylpolyglutamate synthase, mitochondrial (Mus musculus); assay: First order catalytic rate constants (k) was determined from mouse liver Folyl-polyglutamate synthase
[36] = molecular target: T1, Folylpolyglutamate synthase, mitochondrial (Mus musculus); assay: First order catalytic rate folyl-poly-glutamate synthetase
[37] = molecular target: T1, Folylpolyglutamate synthase, mitochondrial (Mus musculus); assay: Apparent catalytic rate folyl-poly-glutamate synthetase
[38] = In vivo anti tumor activity (toxic/total) at dose 25 mg/kg in C3H mice with transplantable murine solid tumor 6C3HED lymphosarcoma; Compound was tested on 10 mice.; assay type: functional, Mus musculus
[39] = as §1; assay type: functional; details: Mus musculus
[40] = In vivo anti tumor activity (toxic/total) at dose 100 mg/kg in C3H mice with transplantable murine solid tumor 6C3HED lymphosarcoma; Compound was tested on 10 mice.; assay type: functional, Mus musculus
[41] = as §3; assay type: functional; details: Mus musculus
[42] = as §4; assay type: functional; details: Mus musculus
[43] = as §2; assay type: functional; details: Mus musculus
[44] = Percent inhibition against C3H mammary adenocarcinoma at dose 25 mg/kg in C3H mice; assay type: functional; details: Mus musculus
[45] = Percent inhibition against C3H mammary adenocarcinoma at dose 12.5 mg/kg in C3H mice; assay type: functional; details: Mus musculus
[46] = In vivo anti tumor activity (toxic/total) at dose 12.5 mg/kg in C3H mice with transplantable murine solid tumor 6C3HED lymphosarcoma; Compound was tested on 10 mice.; assay type: functional, Mus musculus
[47] = In vivo anti tumor activity (toxic/total) at dose 50 mg/kg in C3H mice with transplantable murine solid tumor 6C3HED lymphosarcoma; Compound was tested on 10 mice.; assay type: functional, Mus musculus

`Nc1nc(O)c2c(n1)NCC(CNc1ccc(C(=O)N[C@@H](CCC(=O)O)C(=O)O)cc1)C2` (stereo in doubt; 7a) gave a tox/total [1] of 0, an inhibition in vivo at 6 mg/kg (6C3HED [2]) of 77% and a tox/total [3] of 10. It also gave a tox/total [4] of 3, a tox/total [5] of 0 and a tox/total [6] of 0. For the same compound, the inhibition in vivo at 6.25 mg/kg [7] was 96%, the tox/total [8] was 0 and the IC50 (CCRF-CEM; Homo sapiens, CCRF-CEM) was 10 nM. The inhibition in vivo at 100 mg/kg [9] was 94%, the tox/total [10] was 1 and the inhibition in vivo at 200 mg/kg (6C3HED [11]) was 98%. It also gave a tox/total [12] of 0, an Inhibition (6C3HED [13]; 100 mg/kg) of 93% and an inhibition in vivo at 100 mg/kg (6C3HED [13]; Mus musculus, 6C3HED) of 100%. The Inhibition (6C3HED [14]) was 100% and 74%, the Inhibition [15] was “Toxic” and the tox/total [16] was 0. The tox/total [17] was 9, the tox/total [18] was 3 and the tox/total [19] was 0. For the same compound, the Inhibition (6C3HED [20]) was 100% and 34%, the tox/total [21] was 0 and the tox/total [22] was 10. It also gave an inhibition in vivo at 6.25 mg/kg [23] of 50%, an inhibition in vivo at 12.5 mg/kg [24] of 61% and a tox/total [25] of 6. The Inhibition (6C3HED [26]) was 100% and 51%, the tox/total [27] was 0 and the inhibition in vivo at 25 mg/kg [28] was 64%. The Inhibition [29] was “Toxic”, the inhibition in vivo at 50 mg/kg [30] was 81% and the tox/total [31] was 3. It also gave a tox/total [32] of 10 and a tox/total [33] of 0.

Compound `Nc1nc2c(c(=O)[nH]1)C[C@@H](CCc1ccc(C(=O)N[C@@H](CCC(=O)O)C(=O)O)cc1)CN2` (stereo in doubt; form 3) [LOMETREXOL] has an IC50 (CCRF-CEM; ccrf-cem) of 20 nM.

With `Nc1nc2c(c(=O)[nH]1)C[C@@H](CCc1ccc(C(=O)N[C@@H](CCC(=O)O)C(=O)O)cc1)CN2` (stereo in doubt; form 3) the Km app [34] was 7.3 µM and the k [35] was 32.

With `Nc1nc2c(c(=O)[nH]1)C[C@@H](CCc1ccc(C(=O)N[C@@H](CCC(=O)O)C(=O)O)cc1)CN2` (stereo in doubt; form 1) [LOMETREXOL] the IC50 (CCRF-CEM; ccrf-cem) was 8 nM.

For `Nc1nc(=O)c2nc(CNc3ccc(C(=O)N[C@@H](CCC(=O)O)C(=O)O)cc3)cnc2[nH]1`, the k [36] was 1 and the Km app [37] was 140 µM.

`Nc1nc(O)c2c(n1)NCC(CN(C=O)c1ccc(C(=O)N[C@@H](CCC(=O)O)C(=O)O)cc1)C2` (stereo in doubt; 7b) showed a tox/total [3] of 6, an IC50 (CCRF-CEM; ccrf-cem) of 50 nM and a tox/total [38] of 1. For the same compound, the Inhibition [15] was “Toxic”, the inhibition in vivo at 100 mg/kg [39] was 100% and the tox/total [40] was 7. For the same compound, the inhibition in vivo at 12.5 mg/kg [41] was 95%, the tox/total [22] was 0 and the inhibition in vivo at 25 mg/kg [42] was 100%. The inhibition in vivo at 50 mg/kg [43] was 100%, the inhibition in vivo at 25 mg/kg [44] was 98% and the inhibition in vivo at 12.5 mg/kg [45] was 86%. The tox/total [46] was 1, the tox/total [32] was 10 and the tox/total [47] was 5.
